Reference: the NIST ThermoML archive (doi:10.1016/j.tca.2010.05.012)
Numbers after ± are expanded uncertainties.

Experiment: molar heat capacity at constant pressure
Settings: Liquid, Large sample (1 g) DSC

CC(C)O [propan-2-ol]
molar heat capacity at constant pressure [J/K/mol]
Settings	100 kPa	20000 kPa	40000 kPa
253.15 K	129.4 ± 3.2	126.1 ± 3.1	125.8 ± 3.1
258.15 K	130.6 ± 3.2	128.3 ± 3.1	127.3 ± 3.1
263.15 K	132.6 ± 3.2	130.7 ± 3.2	129.2 ± 3.2
268.15 K	135 ± 3.3	133.4 ± 3.3	131.5 ± 3.2
273.15 K	138 ± 3.4	136.3 ± 3.3	134 ± 3.3
278.15 K	141.4 ± 3.5	139.4 ± 3.4	136.8 ± 3.4
283.15 K	145.1 ± 3.6	142.6 ± 3.5	140 ± 3.4
288.15 K	148.9 ± 3.6	146 ± 3.6	143.3 ± 3.5
293.15 K	152.9 ± 3.7	149.6 ± 3.7	146.9 ± 3.6
298.15 K	157 ± 3.8	153.3 ± 3.8	150.7 ± 3.7
303.15 K	161.1 ± 3.9	157.1 ± 3.8	154.7 ± 3.8
308.15 K	165 ± 4	161.1 ± 3.9	159 ± 3.9
313.15 K	168.6 ± 4.1	165 ± 4	163.3 ± 4
318.15 K	171.9 ± 4.2	169.1 ± 4.1	167.8 ± 4.1
323.15 K	174.9 ± 4.3	173.2 ± 4.2	172.4 ± 4.2
